In patent US20250115591A1, “NOVEL SULFONAMIDE CARBOXAMIDE COMPOUNDS” (INFLAZOME LIMITED, priority 2017, published 2025) one finds IC50 data, which are given here for 13 molecules.

Counter-ions that a name gives are not always drawn.

This experiment has as its target NLRP3 (Homo sapiens (Human), UniProt Q96P20). In words: THP-1 cells pyroptosis assay (LPS + nigericin, resazurin read-out). It counts as cell-based. Particulars: 1 μg/ml LPS, 5 μM nigericin. As to the method:
THP-1 cells (ATCC #TIB-202) were grown in RPMI containing L-glutamine (Gibco 15 #11835) supplemented with 1 mM sodium pyruvate (Sigma #S8636) and penicillin (100 units/ml)/streptomycin (0.1 mg/ml) (Sigma #P4333) in 10% Fetal Bovine Serum (FBS) (Sigma #F0804). The cells were routinely passaged and grown to confluency (˜10^6 cells/ml). On the day of the experiment, THP-1 cells were harvested and resuspended into RPMI medium (without FBS). The cells were then counted and viability (>90%) checked by Trypan blue (Sigma #T8154). Appropriate dilutions were made to give a concentration of 625,000 cells/ml. To this diluted cell solution was added LPS (Sigma #[4524) to give a 1 μg/ml Final Assay Concentration (FAC). 40μ of the final preparation was aliquoted into each well of a 96-well plate. The plate thus prepared was used for compound screening.
The following method step-by-step assay was followed for compound screening. • 1. Seed THP-1 cells (25,000 cells/well) containing 1.0 μg/ml LPS in 40μ of RPMI medium (without FBS) in 96-well, black walled, clear bottom cell culture plates coated with poly-D-lysine (VWR #734-0317) • 2. Add 5 μl compound (8 points half-log dilution, with […]) or vehicle (DMSO 0.1% FAC) to the appropriate wells • 3. Incubate for 3 hrs at 37° C. and 5% CO2 • 4. Add 5 μl nigericin (Sigma #N7143) (FAC 5 μM) to all wells • 5. Incubate for 1 hr at 37° C. and 5% CO2 • 6. At the end of the incubation period, spin plates at 300×g for 3 mins and remove supernatant • 7. Then add 50 μl of resazurin (Sigma #R7017) (FAC 100 μM resazurin in RPMI medium without FBS) and incubate plates for a further 1-2 hrs at 37° C. and 5% CO2 • 8. Plates were read in an Envision reader at Ex 560 nm and Em 590 nm • 9. IC50 data is fitted to a non-linear regression equation (log inhibitor vs response-variable slope 4-parameters)
Background: Alamar Blue is a resazurin reagent that responds to reducing activity.

Usually IC50 stands for the concentration needed to halve the response being measured.

Sequence of NLRP3 (Q96P20 whole entry): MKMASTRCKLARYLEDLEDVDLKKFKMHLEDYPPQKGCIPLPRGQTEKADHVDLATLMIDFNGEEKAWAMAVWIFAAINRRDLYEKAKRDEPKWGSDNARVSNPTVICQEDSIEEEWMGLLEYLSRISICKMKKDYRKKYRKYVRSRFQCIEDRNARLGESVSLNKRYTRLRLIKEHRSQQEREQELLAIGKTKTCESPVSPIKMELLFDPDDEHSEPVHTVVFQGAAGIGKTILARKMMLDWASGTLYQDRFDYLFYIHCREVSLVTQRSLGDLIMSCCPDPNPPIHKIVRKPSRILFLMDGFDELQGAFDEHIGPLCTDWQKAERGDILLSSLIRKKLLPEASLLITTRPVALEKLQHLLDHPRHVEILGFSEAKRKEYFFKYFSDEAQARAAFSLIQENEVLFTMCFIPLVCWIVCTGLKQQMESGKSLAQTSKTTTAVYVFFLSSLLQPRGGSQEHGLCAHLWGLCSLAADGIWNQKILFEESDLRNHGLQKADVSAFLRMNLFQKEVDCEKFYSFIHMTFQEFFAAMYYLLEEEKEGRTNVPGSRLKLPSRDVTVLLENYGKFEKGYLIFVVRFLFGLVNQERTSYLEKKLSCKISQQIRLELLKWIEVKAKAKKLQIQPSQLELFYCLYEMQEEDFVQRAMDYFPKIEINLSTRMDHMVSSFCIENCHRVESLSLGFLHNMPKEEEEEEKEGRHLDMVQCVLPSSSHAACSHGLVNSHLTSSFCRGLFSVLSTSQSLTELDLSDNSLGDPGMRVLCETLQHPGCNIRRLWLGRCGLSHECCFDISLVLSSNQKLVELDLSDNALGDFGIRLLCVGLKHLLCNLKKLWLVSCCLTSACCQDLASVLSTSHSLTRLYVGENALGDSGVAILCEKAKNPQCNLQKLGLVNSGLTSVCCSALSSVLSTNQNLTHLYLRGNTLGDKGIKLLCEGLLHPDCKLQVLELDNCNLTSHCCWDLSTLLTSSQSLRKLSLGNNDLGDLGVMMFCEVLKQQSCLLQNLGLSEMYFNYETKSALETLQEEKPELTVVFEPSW

`CN1CC2(CC(S(=O)(=O)NC(=O)Nc3c4c(cc5c3CCC5)CCC4)C2)C1` [Example 64, N-((1,2,3,5,6,7-Hexahydro-s-indacen-4-yl)carbamoyl)-2-methyl-2-azaspiro[3.3]heptane-6-sulfonamide, potassium salt]: the IC50 is 1 to 10 µM. Then `CCN1CC(S(=O)(=O)NC(=O)Nc2c3c(cc4c2CCC4)CCC3)Cc2ccccc21` (stereo not shown) [Example 66, 1-Ethyl-N-((1,2,3,5,6,7-hexahydro-s-indacen-4-yl)carbamoyl)-1,2,3,4-tetrahydroquinoline-3-sulfonamide, potassium salt], with < 1 µM; and `O=C(Nc1c2c(cc3c1CCC3)CCC2)NS(=O)(=O)C1CCN(CC(F)(F)F)CC1` [Example 67, N-((1,2,3,5,6,7-Hexahydro-s-indacen-4-yl)carbamoyl)-1-(2,2,2-trifluoroethyl)piperidine-4-sulfonamide, potassium salt], with 1 to 10 µM; and `CC(C)N1CCC(S(=O)(=O)NC(=O)Nc2c3c(cc4c2CCC4)CCC3)C1=O` (stereo not shown) [Example 68, N-((1,2,3,5,6,7-Hexahydro-s-indacen-4-yl)carbamoyl)-1-isopropyl-2-oxopyrrolidine-3-sulfonamide, potassium salt], with < 1 µM. Then `CCN1CCC(N2CC(S(=O)(=O)NC(=O)Nc3c4c(cc5c3CCC5)CCC4)C2)CC1` [Example 73, 1-(1-Ethylpiperidin-4-yl)-N-((1,2,3,5,6,7-hexahydro-s-indacen-4-yl)carbamoyl)azetidine-3-sulfonamide, potassium salt], with 1 to 10 µM; and `CC(C)(C)OC(=O)N1CC(S(=O)(=O)NC(=O)Nc2c3c(cc4c2CCC4)CCC3)C1` [Example 77, tert-Butyl 3-(N-((1,2,3,5,6,7-hexahydro-s-indacen-4-yl)carbamoyl)sulfamoyl)azetidine-1-carboxylate, potassium salt], with 1 to 10 µM; and `CC(=O)N1CC(N2CCC(S(=O)(=O)NC(=O)Nc3c4c(cc5c3CCC5)CCC4)CC2)C1` [Example 79, 1-(1-Acetylazetidin-3-yl)-N-((1,2,3,5,6,7-hexahydro-s-indacen-4-yl)carbamoyl)piperidine-4-sulfonamide, potassium salt], with 1 to 10 µM. Take `CN1CC(N2CCC(S(=O)(=O)NC(=O)Nc3c4c(cc5c3CCC5)CCC4)CC2)C1` [Example 80, N-((1,2,3,5,6,7-Hexahydro-s-indacen-4-yl)carbamoyl)-1-(1-methylazetidin-3-yl)piperidine-4-sulfonamide, potassium salt]: the IC50 is 1 to 10 µM. Next, `CCC(CC)N1CCC(S(=O)(=O)NC(=O)Nc2c3c(cc4c2CCC4)CCC3)C1` (stereo not shown) [Example 81, N-((1,2,3,5,6,7-Hexahydro-s-indacen-4-yl)carbamoyl)-1-(pentan-3-yl)pyrrolidine-3-sulfonamide, potassium salt]: 1 to 10 µM; `CC(C)(O)CN1CC(S(=O)(=O)NC(=O)Nc2c3c(cc4c2CCC4)CCC3)C1` [Example 84, N-((1,2,3,5,6,7-Hexahydro-s-indacen-4-yl)carbamoyl)-1-(2-hydroxy-2-methylpropyl)azetidine-3-sulfonamide, potassium salt]: < 1 µM. Next, `O=C(Nc1c2c(cc3c1CCC3)CCC2)NS(=O)(=O)C1CN(C(CF)CF)C1` [Example 86, 1-(1,3-Difluoropropan-2-yl)-N-((1,2,3,5,6,7-hexahydro-s-indacen-4-yl)carbamoyl)azetidine-3-sulfonamide, potassium salt]: 1 to 10 µM; `COCCN1CC(S(=O)(=O)NC(=O)Nc2c3c(cc4c2CCC4)CCC3)C1` [Example 88, N-((1,2,3,5,6,7-Hexahydro-s-indacen-4-yl)carbamoyl)-1-(2-methoxyethyl)azetidine-3-sulfonamide, potassium salt]: < 1 µM. In the case of `O=C(Nc1c2c(cc3c1CCC3)CCC2)NS(=O)(=O)C1CN(CC2CCCCC2)C1` [Example 89, 1-(Cyclohexylmethyl)-N-((1,2,3,5,6,7-hexahydro-s-indacen-4-yl)carbamoyl)azetidine-3-sulfonamide, potassium salt], the 50% inhibitory concentration (IC50) is 1 to 10 µM.
